Patent publication US10369158B2, “Pharmaceutical packaging for estriol therapy” (The Regents of the University of California, priority 2014, dated 2019)

What was measured:
Assay type in all cases: in vivo, human
[1] = system: multiple sclerosis; experiment: Timed 25-foot walk test; conditions: between-group difference p=0.02
Text: (§1) Patients also underwent mammograms before and after the study.
Another clinical disability measure with treatment effects was the timed 25-foot walk test. This test measures how many seconds it takes to walk 25 feet, with higher scores indicating worse disability. […] This beneficial effect of estriol treatment on 25 foot walking times is consistent with the beneficial effect of estriol treatment on EDSS scores since the latter is weighted toward being an indicator of ambulation.

[2] = Safety and tolerability in randomized, double-blind, placebo-controlled clinical trial (gynecological outcomes, mammograms)
Text: as §1
Baseline characteristics were similar in both patient groups.

[3] = system: multiple sclerosis; experiment: Brain MRI gadolinium enhancing lesions; conditions: at month 12 compared to month 0 baseline, p=0.14
Text: as §1
Brain MRI is used extensively in MS as a surrogate marker for clinical effects. Brain white matter gadolinium enhancing lesions are a biomarker for relapses.

[4] = system: multiple sclerosis; experiment: Expanded Disability Status Scale (EDSS)
Text: as §1
The Expanded Disability Status Scale (EDSS) is a standard composite disability score used in MS trials. Higher scores indicate worse disability. This composite covers a variety of disabilities (including ambulation, vision, cognition, coordination, etc.), but scoring is not linear, and the composite score is understood to be principally an indicator of the level of disability in ambulation.

[5] = system: multiple sclerosis; experiment: Paced Auditory Serial Addition Test (PASAT) cognitive disability assessment; conditions: month 12 to month 24
Text: as §1
Next it was shown that the improvement in PASAT cognitive test scores was sustained when subjects were followed for the entire 24 month period, p=0.02 (FIG. 3).

[6] = 24-month treatment, Copaxone with estriol or placebo

glatiramer acetate [Copaxone® plus placebo]
Change of walk time in timed 25-foot walk test [1]: significantly increased
Abnormal proliferation in uterine endometrial biopsies [2, 6]: no
Breast - Fibrocystic breast disease on clinical exam [2, 6]: 4 subjects
Uterine endometrial biopsies (exams) [2, 6]: 10 exams
Uterine endometrial thickness > 8 mm on ultrasound (subjects) [2, 6]: 27 subjects
Mammograms ([2]; before and after the study): No breast
Uterine fibroids on ultrasound ([2]; women with MS, 24-month treatment, Copaxone 20 mg/day with oral estriol 8 mg/day or placebo, norethindrone 0.7 mg/day for 14 days every three months): 8 subjects
Reduction in number of subjects with brain MRI scans positive for enhancing lesions [3]: 22%
Change in EDSS scores ([4]; 24 months (FIG. 4)): no change
EDSS scores over 24 months, slope ([4]; FIG. 4, p=0.06 estriol group, p=0.90 placebo group): −0.01
PASAT scores after 12 months to end of study [5]: began to show improved PASAT scores
